14 molecules from US20020132817A1, “Heterocyclic compounds, their production and use” (priority 1998, published 2002) can be followed below.

Marks after values point to notes of the source that are not given here.

In data set [1] the test system is plasma extravasation induced by capsaicin in trachea of guinea pigs. Kind of data set: Inhibitory effect on plasma extravasation induced by capsaicin in trachea of guinea pigs. The format is in vivo. To be noted: for ED50: Cavia porcellus, iv, 5 minutes before capsaicin, Evans' blue dye in trachea, read-out: ID50, μg/kg, i.v. The protocol: Guinea pigs (Hartley type white male guinea pige), (n=6) were anesthetized with 35 mg/kg of pentobarbital injected intraperitoneally (i.p.), then test compounds were administered intravenously (i.v.). After 5 minutes, a mixed solution of capsaicin ([…]) and Evans' blue dye (20 mg/kg) was administered intravenously to cause reaction. Ten minutes later, test animals were sacrificed by cutting the aorta, then perfused through pulmonary artery with 50 ml of physiological saline. The trachea was excised, and its wet weight was measure. The trachea was incubated at room temperature in 1 ml of acetone-0.3% sodium sulfate (7:3) overnight and Evans' blue dye was extracted from the trachea. The extract solution was centrifuged at 2800 rpm for 5 minutes. The amount of Evans' blue dye in the supernatant was quantified by measuring absorbance at […].
The reaction of accelerating the permeability of blood vessels is expressed in terms of the amount of Evans' blue (μg) per trachea unit weight (g) and the effect of drug was evaluated by calculating the degree of inhibition (% inhibition) according to the following equation: […]

The next data set deals with T1, substance P receptor (Homo sapiens, UniProt P25103).
T1 construct: The receptor was prepared from human lymphoblast cells (IM-9); endogenous in cells; host or cells: IM-9 human lymphoblast cells (membrane preparation)
T1 sequence (P25103 whole entry): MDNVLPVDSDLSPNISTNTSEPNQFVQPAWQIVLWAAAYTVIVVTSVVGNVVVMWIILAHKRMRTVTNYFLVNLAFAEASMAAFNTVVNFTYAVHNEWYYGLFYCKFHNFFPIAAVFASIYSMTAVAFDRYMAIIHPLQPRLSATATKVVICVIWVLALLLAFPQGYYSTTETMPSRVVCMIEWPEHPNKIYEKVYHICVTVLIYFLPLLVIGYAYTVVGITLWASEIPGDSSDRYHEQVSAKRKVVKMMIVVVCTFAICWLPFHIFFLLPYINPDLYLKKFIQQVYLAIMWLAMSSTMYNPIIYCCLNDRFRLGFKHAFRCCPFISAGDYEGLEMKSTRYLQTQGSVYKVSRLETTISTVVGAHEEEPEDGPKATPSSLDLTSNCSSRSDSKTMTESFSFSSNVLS
The data set is described as follows: Radioligand receptor binding inhibitory activity using receptor from human lymphoblast cells (IM-9). To be noted: 125I-BHSP radioligand, receptor from IM-9 cells, 25° C. for 30 minutes. The protocol: Radioligand receptor binding inhibitory activity Binding inhibitory activity using receptor from human lymphoblast cells (IM-9)
The receptor was prepared from human lymphoblast cells (IM-9). IM-9 cells (2×10^5 cells/ml) were inoculated and incubated for 3 days (one liter), which was then subjected to centrifuge for 5 minutes at 500×g to obtain cell pellets. […] The residue was washed twice with 30 ml of the above-mentioned buffer, which was then preserved frozen (−80° C.) as a specimen of the receptor.
The specimen was suspended in a reaction buffer (50 mM Tri-HCl buffer (pH 7.4), 0.02% bovine serum albumin, 1 mM phenylmethylsulfonyl fluoride, […], […] bacitracin, 3 mM manganese chloride) and 100 ul portion was the suspension was used in the reaction. […] The amount of nonspecific binding was determined by adding substance P at a final concentration of 2×10^−6M. After the reaction, using a cell harvester (290 PHD, Cambridge Technology, Inc, U.S.A.), rapid filtration was carried out through a glass filter (GF/B, Whatman, U.S.A.) to stop the reaction. After washing three times with 250 ul of 50 mM of Tris-HCl buffer (pH 7.4) containing 0.02% bovine serum albumin, the radioactivity remaining on the filter was determined with a gamma counter. Before use, the filter was immersed in 0.1% polyethyleneimine for 24 hours and air-dried.

In a further data set the target is T2, human NK2 receptor (Homo sapiens, UniProt P21452).
T2 construct: expressed in transfected cells; host or cells: COS-7 cells, transient transfection with an SRa-promoter expression vector; membrane preparation
T2 sequence (P21452 1-398): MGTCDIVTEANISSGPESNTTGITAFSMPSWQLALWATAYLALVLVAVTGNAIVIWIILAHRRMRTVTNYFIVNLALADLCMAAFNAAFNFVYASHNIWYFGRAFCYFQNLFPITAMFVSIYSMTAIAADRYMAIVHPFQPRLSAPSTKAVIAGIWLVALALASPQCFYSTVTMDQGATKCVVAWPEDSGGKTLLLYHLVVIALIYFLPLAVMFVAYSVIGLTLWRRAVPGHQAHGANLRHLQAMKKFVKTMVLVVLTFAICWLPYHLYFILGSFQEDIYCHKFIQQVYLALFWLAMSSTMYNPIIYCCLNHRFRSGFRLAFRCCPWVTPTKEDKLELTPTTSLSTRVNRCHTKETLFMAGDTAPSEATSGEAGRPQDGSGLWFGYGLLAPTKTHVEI
The data set is described as follows: Binding inhibitory activity toward human NK2 receptor. To be noted: (2-[125I]iodohistidyl1)Neurokinin A 0.1 nM, receptor expressed in COS-7 cells, room temperature 60 min.

As for `Cc1ccc(-c2c3n(c(=O)c4ncccc24)CCCCCN(Cc2cc(C(F)(F)F)cc(C(F)(F)F)c2)C3=O)cc1` [Reference Example 60, 7-[3,5-Bis(trifluoromethyl)benzyl]-6,7,8,9,10,11,12,14-octahydro-5-(4-methylphenyl)-6,14-dioxo[1,4]diazonino[2,1-g][1,7]naphthyridine], the ED50 in data set [1] is 11 µg/kg.

As usually defined, the melting point is the temperature, or range, at which the solid turns liquid. The IC50 is the concentration at which inhibition is half-maximal. For `C[C@@H]1CCn2c(c(-c3ccccc3)c3cccnc3c2=O)C(=O)N(Cc2cc(C(F)(F)F)cc(C(F)(F)F)c2)C1` [Reference Example 71, (9R)-7-[3,5-Bis(trifluoromethyl)benzyl]-6,7,8,9,10,11-hexahydro-9-methyl-6,13-dioxo-5-phenyl-13H-[1,4]diazocino[2,1-g] [1,7]naphthyridine], the melting point fell in the range of 245 to 247 °C. The ED50 in data set [1] was 1.9 µg/kg. Also, the IC50 at substance P receptor is 0.23 nM.

As to `O=C1c2c(-c3ccccc3)c3cccnc3c(=O)n2CCCCN1Cc1cc(C(F)(F)F)cc(C(F)(F)F)c1` [Reference Example 62, 7-[3,5-Bis(trifluoromethyl)benzyl]-6,7,8,9,10,11-hexahydro-6,13-dioxo-5-phenyl-13H-[1,4]diazocino[2,1-g][1,7]naphthyridine], in data set [1], the ED50 was determined as 3.2 µg/kg. On substance P receptor, this molecule gave an IC50 of 1.2 nM.

As to `Cc1ccc(-c2c3n(c(=O)c4ncccc24)C[C@H](C)CN(Cc2cc(C(F)(F)F)cc(C(F)(F)F)c2)C3=O)cc1` [Reference Example 66, (9R)-7-[3,5-Bis(trifluoromethyl)benzyl]-6,7,8,9,10,12-hexahydro-9-methyl-5-(4-methylphenyl)-6,12-dioxo[1,4]diazepino[2,1-g][1,7]naphthyridine], the melting point fell in the range of 179 to 180 °C. In data set [1], the ED50 worked out at 41 µg/kg.

As for `Cc1cnc2c(c1-c1ccccc1)C(=O)N(Cc1cc(C(F)(F)F)cc(C(F)(F)F)c1)CCO2` [Reference Example 77, 4-[3,5-Bis(trifluoromethyl)benzyl]-2,3,4,5-tetrahydro-7-methyl-5-oxo-6-phenylpyrido[3,2-f][1,4]oxazepine], the “Degree of Inhibition (%)” value in data set [1] (Dosage (i.v.) 100 μg/kg) is 64.0* %. This molecule also yielded an IC50 on substance P receptor of 1.1 nM.

Regarding `Cc1ccc(-c2c3n(c(=O)c4ncccc24)C[C@@H](C)CN(Cc2cc(C(F)(F)F)cc(C(F)(F)F)c2)C3=O)cc1` [Reference Example 68, (9S)-7-[3,5-Bis(trifluoromethyl)benzyl]-6,7,8,9,10,12-hexahydro-9-methyl-5-(4-methylphenyl)-6,12-dioxo[1,4]diazepino[2,1-g][1,7]naphthyridine], the melting point is 179 to 180 °C. Moreover, in data set [1], the ED50 worked out at 3.2 µg/kg.

For the molecule `O=C1c2c(-c3ccccc3)ccnc2OCCCN1Cc1cc(C(F)(F)F)cc(C(F)(F)F)c1` [Reference Example 76, 5-[3,5-Bis(trifluoromethyl)benzyl]-2,3,4,5-tetrahydro-6-oxo-7-phenyl-6H-pyrido[2,3-b][1,5]oxazocine], the melting point lay in the range of 188 to 189 °C. The IC50 on human NK2 receptor is 7.5 nM.

Turning to `Cc1ccc(-c2c3n(c(=O)c4ncccc24)CCCN(Cc2cc(C(F)(F)F)cc(C(F)(F)F)c2)C3=O)cc1` [Reference Example 56, 7-[3,5-Bis(trifluoromethyl)benzyl]-6,7,8,9,10,12-hexahydro-5-(4-methylphenyl)-6,12-dioxo[1,4]diazepino[2,1-g][1,7]naphthyridine], the melting point is 194 to 195 °C. Further, in data set [1], the ED50 came to 7.2 µg/kg. The IC50 at substance P receptor stood at 0.28 nM.

On to `O=C1c2c(-c3ccccc3)c3cccnc3c(=O)n2CCCN1Cc1cc(C(F)(F)F)cc(C(F)(F)F)c1` [Reference Example 61, 7-[3,5-Bis(trifluoromethyl)benzyl]-6,7,8,9,10,12-hexahydro-6,12-dioxo-5-phenyl[1,4]diazepino[2,1-g][1,7]naphthyridine], for which the ED50 in data set [1] was found to be 2.6 µg/kg.

Consider `O=C1c2c(-c3ccccc3)c3cccnc3c(=O)n2CCCCN1Cc1ccccc1` [Reference Example 81, 7-Benzyl-6,7,8,9,10,11-hexahydro-6,13-dioxo-5-phenyl-13H-[1,4]diazocino[2,1-g][1,7]naphthyridine], for which the IC50 at human NK2 receptor came to 6.2 nM.

`C[C@H]1CN(Cc2cc(C(F)(F)F)cc(C(F)(F)F)c2)C(=O)c2c(-c3ccccc3)c3cccnc3c(=O)n2C1` [Reference Example 67, (9S)-7-[3,5-Bis(trifluoromethyl)benzyl]-6,7,8,9,10,12-hexahydro-9-methyl-6,12-dioxo-5-phenyl[1,4]diazepino[2,1-g][1,7]naphthyridine] gave a melting point of 150 to 152 °C. In addition, the ED50 in data set [1] came to 1.6 µg/kg. The molecule further gave an IC50 on substance P receptor of 0.17 nM.

Regarding `C[C@@H]1CCn2c(c(-c3ccc(CO)cc3)c3cccnc3c2=O)C(=O)N(Cc2cc(C(F)(F)F)cc(C(F)(F)F)c2)C1` [Reference Example 137, (9R)-7-[3,5-bis(trifluoromethyl)benzyl]-6,7,8,9,10,11-hexahydro-5-(4-hydroxymethylphenyl)-9-methyl-6,13-dioxo-13H-[1,4]diazosino[2,1-g][1,7]napththylidine], the melting point fell in the range of 240 to 241 °C. In addition, in data set [1], the ED50 was 2.5 µg/kg. The same molecule gave an IC50 on substance P receptor of 0.84 nM.

`Cc1cc(-c2ccccc2)c2c(n1)OCCN(Cc1cc(C(F)(F)F)cc(C(F)(F)F)c1)C2=O` [Reference Example 87, 4-[3,5-Bis(trifluoromethyl)benzyl]-2,3,4,5-tetrahydro-8-methyl-5-oxo-6-phenylpyrido[3,2-f][1,4]oxazepine] gave a melting point of 151 to 153 °C. Also, the IC50 on human NK2 receptor was found to be 9.5 nM.

As to `Cc1ccc(-c2c3n(c(=O)c4ncccc24)CCCCN(Cc2cc(C(F)(F)F)cc(C(F)(F)F)c2)C3=O)cc1` [Reference Example 57, 7-[3,5-Bis(trifluoromethyl)benzyl]-6,7,8,9,10,11-hexahydro-5-(4-methylphenyl)-6,13-dioxo-13H-[1,4]diazocino[2,1-g][1,7]naphthyridine], the ED50 in data set [1] stood at 4.2 µg/kg. This molecule also displayed an IC50 at substance P receptor of 0.76 nM.
